How the values were obtained:
Salmonella sp. = assay: Sensitivity of bacteria to antibiotics dissolved in composition, diffusion into nutrient agar; assay type: cell-based; parameters: Rate of increase of sensitivity of bacteria (increase of diameters of zones of suppression vs control): concentration or dose not given beside the values; settings: for Rate of increase of sensitivity of bacteria (increase of diameters of zones of suppression vs control): Salmonella, antibiotic dissolved in composition pH=7.9, Eh=−230 mV; for change of strain sensitivity: antibiotic dissolved in composition
Description: (§1) It was used the method of preparations diffusion into nutrient agar. […] It was used sterilized water with Eh=250 mV, SCE, pH=7.9 and mineralization 350 mg/l for control.

Klebsiella pneumoniae = assay: as above; assay type: cell-based; parameters: Rate of increase of sensitivity of bacteria (increase of diameters of zones of suppression vs control): concentration or dose not given beside the values; settings: for Rate of increase of sensitivity of bacteria (increase of diameters of zones of suppression vs control): Clebsiella, antibiotic dissolved in composition pH=7.9, Eh=−230 mV
Description: as §1

Shigella sp. = assay: as above; assay type: cell-based; settings: for Rate of increase of sensitivity of bacteria (increase of diameters of zones of suppression vs control): Shigella, antibiotic dissolved in composition pH=7.9, Eh=−230 mV; for change of strain sensitivity: antibiotic dissolved in composition
Description: as §1

S. aureus = assay: as above; assay type: cell-based; settings: for Rate of increase of sensitivity of bacteria (increase of diameters of zones of suppression vs control): Staphylococcus, antibiotic dissolved in composition pH=7.9, Eh=−230 mV
Description: as §1

[1] = Stabilization of redox properties of water solution, 6 months storage at 50° C after autoclaving; assay type: physicochemical; settings: autoclaved
Description: Water from water supply system with initial characteristics: Eh=+260 mV, SCE, and pH 6.7, is directed to the device of “Izumrud”-type, which is manufactured in Russia. On the output characteristics of water have the values: […] After sterilization these flasks with mentioned water solutions are put into the thermostat at temperature 50° C. Flasks with water solutions corresponding to this invention and stored at the mentioned temperature, protected from light, during 6 months. After 6 months flasks are opened, and the redox potential is measured.

[2] = Content of MDA in liposome dispersions (oxidation of phospholipids); assay type: physicochemical; settings: Yolk lecithin liposomes; 1 hour
Description: In the experiment liposomes are made by mixing and ultrasound treatment of phospholipids of yolk and the water solution, corresponding to this invention, with specified redox properties, containing glycine. Liposomes, prepared by this method, are the milk-white suspension. […] Electrochemically activated water: anomalous properties, mechanism of biological effect. Moscow 1997, […]. 152). There was also determined the rate of oxidation of phospholipids according to content of dialdehyde malonate (DMA).

[3] = antibiotic dissolved in composition

Compound | Rate of increase of sensitivity of bacteria (increase of diameters of zones of suppression vs control) (Salmonella sp.) | Rate of increase of sensitivity of bacteria (increase of diameters of zones of suppression vs control) (Klebsiella pneumoniae) | Rate of increase of sensitivity of bacteria (increase of diameters of zones of suppression vs control) (Shigella sp.) | Rate of increase of sensitivity of bacteria (increase of diameters of zones of suppression vs control) (S. aureus) | pH after 6 months ([1]; 0.005% of weight) | pH after 6 months ([1]; 0.5% of weight) | pH after 6 months ([1]; 10% of weight) | other results
NCC[C@H](O)C(=O)N[C@@H]1C[C@H](N)[C@@H](O[C@H]2O[C@H](CN)[C@@H](O)[C@H](O)[C@H]2O)[C@H](O)[C@H]1O[C@H]1O[C@H](CO)[C@@H](O)[C@H](N)[C@H]1O [Amicacin] | 18% | 34% | 38% | 4% | – | – | – | change of sensitivity (Klebsiella pneumoniae; [3]): increased; change of strain sensitivity (Shigella sp.): from medium sensitive to sensitive
N[C@@H](CS)C(=O)O [Cysteine] | – | – | – | – | 7.3 | 7.8 | 6.9 | –
Gentamycin | 47% | 6% | 40% | 11% | – | – | – | change of strain sensitivity (Salmonella sp.): from resistant to sensitive; change of strain sensitivity (Shigella sp.): from resistant to sensitive
NCC(=O)O [Glycine] | – | – | – | – | 7.2 | 7.9 | 7.7 | –
O=C(N[C@H](CO)[C@H](O)c1ccc([N+](=O)[O-])cc1)C(Cl)Cl [Chloramphenicol] | 6% | 5% | 17% | 3% | – | – | – | –
N[C@@H](Cc1ccc(O)cc1)C(=O)O [Tyrosine] | – | – | – | – | 7.2 | 7.4 | 7.2 | Eh after 6 months ([1]; 0.005% of weight): −5 mV; Eh after 6 months ([1]; 0.5% of weight): −80 mV; Eh after 6 months ([1]; 10% of weight): −30 mV
CC(=O)Oc1c(C)c(C)c2c(c1C)CCC(C)(CCC[C@H](C)CCC[C@H](C)CCCC(C)C)O2 (some centres unmarked) [Water + tocopherol acetate (2%), tocopherol acetate] | – | – | – | – | – | – | – | Content of MDA [2]: 3.1 nmol/mL
C[C@@H](O)[C@H](N)C(=O)O [Threonine] | – | – | – | – | 7.1 | 7.5 | 7.4 | –
NC[C@H]1O[C@H](O[C@H]2[C@H](O)[C@@H](O[C@H]3O[C@H](CO)[C@@H](O)[C@H](N)[C@H]3O)[C@H](N)C[C@@H]2N)[C@H](O)[C@@H](O)[C@@H]1O [Kanamycin] | 18% | 12% | 35% | 8% | – | – | – | –
Cc1cc(C(C)(C)C)c(O)c(C(C)(C)C)c1 [Water + agidol (1.0%), agidol] | – | – | – | – | – | – | – | Content of MDA [2]: 2.0 nmol/mL
Gelatin | – | – | – | – | 6.8 | 7.3 | 7.6 | –
NCC(N)=O [Glycine amide] | – | – | – | – | 6.5 | 7.4 | 7.0 | –
CC1(C)S[C@@H]2[C@H](NC(=O)[C@H](N)c3ccccc3)C(=O)N2[C@H]1C(=O)O [Ampicillin] | 26% | 7% | 44% | 22% | – | – | – | change of strain sensitivity (Salmonella sp.): from medium sensitive to sensitive; change of strain sensitivity (Shigella sp.): from resistant to sensitive; change of sensitivity (S. aureus; [3]): increased
Cc1cc(C(C)(C)C)c(O)c(C(C)(C)C)c1 [Water + butyl-hydroxytoluene (0.1%), butyl-hydroxytoluene] | – | – | – | – | – | – | – | Content of MDA [2]: 2.7 nmol/mL
N[C@@H](CO)C(=O)O [Serine] | – | – | – | – | 7.1 | 7.8 | 7.6 | –
CCn1cc(C(=O)O)c(=O)c2ccc(C)nc21 [Nalidixic acid] | 42% | 11% | 33% | 3% | – | – | – | change of strain sensitivity (Salmonella sp.): from resistant to sensitive
NC(=O)CC[C@H](N)C(=O)O [Glutamine] | – | – | – | – | 5.8 | 7.2 | 7.2 | –
NC(=O)C[C@H](N)C(=O)O [Asparagine] | – | – | – | – | 5.9 | 6.9 | 7.0 | –

From US20050143321A1, “Composition with stabilized redox properties and method of stabilization of redox properties” (priority 2002, published 2005)
